Results reported in paper PMC5456363 (PLoS ONE, 2017).
Several values for one entry are separate records, joined by “and”; a condition that tells them apart may be missing. Equal values may be shown once. Entries after “also recorded” stand apart in the source; their conditions may differ. Each block holds one molecule with its values, some of them ahead of it. Non-standard residues stand in square brackets, D forms with d. Residues, ends and D or L forms follow the SMILES beside them. No end group written: not given here. *: point of attachment. Orn(α-tetramethylguanidino) = CN(C)C(=N[C@@H](CCCN)C(=O)*)N(C)C; Orn = NCCC[C@H](N)C(=O)O

How the values were obtained:
[1] = system: human α-thrombin; test: human α-thrombin; conditions: up to 24 hours
[2] = Pooled mouse serum (PAA Laboratories), commercial serum (CS); conditions: 37°C, up to 60 min
[3] = pooled CD-1 mouse plasma containing K2EDTA (EDTA plasma, EP); conditions: 37°C, up to 60 min
[4] = pooled CD-1 mouse plasma containing lithium heparin (heparin plasma, HP); conditions: 37°C, up to 60 min
[5] = “direct serum” (DS): blood in polypropylene tubes centrifuged immediately; conditions: CD-1 mice, 37°C, up to 60 min
[6] = “activated serum” (AS): serum separator tubes incubated (room temperature, 1 h), centrifuged; conditions: CD-1 mice, 37°C, up to 60 min
[7] = blood collected via cardiac puncture into a syringe containing the peptide solution (“blood”, B); conditions: CD-1 mice, 37°C, up to 60 min
[8] = Peptide stability in fresh blood taken by cardiac puncture into a syringe containing the peptide (blood, B); format: in vitro ADME, CD-1 mice; conditions: blood, 37°C, 1 h, 31.5 μmol/L; for remaining at 1 h: CD-1, mouse, fresh whole blood, read-out: intact peptide remaining relative to time zero
Experimental: (§1) All stability tests were performed at least in triplicates.

[9] = Peptide stability in direct serum (DS); format: in vitro ADME, CD-1 mice; conditions: 37°C, 1 h, 31.5 μmol/L; for remaining at 1 h, 31.5 μmol/L: CD-1, mouse, direct serum (supernatant of blood centrifuged immediately), read-out: intact peptide remaining relative to time zero
Experimental: as §1

[10] = Peptide stability in activated serum (AS); format: in vitro ADME, CD-1 mice; conditions: 37°C, 1 h, 31.5 μmol/L; for remaining at 1 h, 31.5 μmol/L: CD-1, mouse, read-out: intact peptide remaining relative to time zero
Experimental: as §1

[11] = Peptide stability in commercial serum (CS); format: in vitro ADME, mouse; conditions: commercial mouse serum, 37°C, 1 h, 31.5 μmol/L; for remaining at 1 h, 31.5 μmol/L: commercial pooled serum, read-out: intact peptide remaining relative to time zero
Experimental: as §1

[12] = Peptide stability in heparin plasma (HP); format: in vitro ADME, CD-1 mouse; conditions: 37°C, 1 h, 31.5 μmol/L
Experimental: as §1

[13] = Peptide stability in EDTA plasma (EP); format: in vitro ADME, CD-1 mouse; conditions: 37°C, 1 h, 31.5 μmol/L
Experimental: as §1

[14] = cited from earlier work
[15] = Stability and metabolites across fresh blood, serum and plasma (all six matrices); conditions: for Overall stability / Sequential stability: fresh blood, serum, and plasma
Experimental: Aqueous peptide solutions (3 g/L) were filled in a sterile syringe (1 mL, Dispomed Witt oHG, Gelnhausen, Deutschland) through the front end, the stainless-steel needle was attached, and blood (200 to 300 μL) was collected via cardiac puncture to obtain a peptide concentration of approximately 31,5 μmol/L. The syringe was carefully disconnected from the needle and sealed while keeping the needle in the heart. A second empty syringe was attached to the needle and 0.5 to 0.8 mL blood were collected. In parallel, the sealed syringe was gently shaken for one minute to mix the peptide solution with blood and further incubated on a Stuart Rotator SB3 (Barloworld, Scientific LTD, Stone, Staffordshire, U.K.) placed in an incubator at 37°C. […] The plasma sample designated as “blood” (B) was precipitated with trichloroacetic acid (TCA), as described below. Blood collected in the second syringe was transferred to a polypropylene tube (Eppendorf AG, Hamburg, Germany) and a BD Microtainer® serum separator tube (SST; Becton, Dickinson and Company). Polypropylene tubes were centrifuged immediately (12,000 x g, 2 to 4 min) to obtain “direct serum” (DS) as supernatant, whereas the serum separator tubes were incubated (room temperature, 1 h), centrifuged (12,000 x g, 2 min), and collected as “activated serum” (AS). Pooled mouse serum was purchased from PAA Laboratories GmbH (Pasching, Austria) and pooled CD-1 mouse plasma containing K2EDTA or lithium heparin were obtained from Innovative Research (Novi, MI, USA).
Peptides were mixed with serum or plasma to a final concentration of 31.5 μmol/L and incubated (37°C, 750 rpm; Thermomixer, Eppendorf AG, Hamburg, Germany). Aliquots (20 or 40 μL) taken after 0 and 60 min (0, 10 and 30 min for Api88) were mixed with TCA to obtain a final concentration of 3% (w/v) and incubated on ice (10 min). After centrifugation (12,000 x g, 5 min), the supernatant was neutralized with sodium hydroxide (1 mol/L) and stored at −20°C. Samples were analyzed by RP-HPLC on a Jupiter C18-column (internal diameter: 2 mm, length: 150 mm, particle size: 5 μm, pore size: 30 nm) using a linear aqueous acetonitrile gradient containing TFA (0.1%, v/v) as ion pair reagent. Peptides were detected by recording the absorbance at 214 nm and quantified by their peak areas relative to the initial peak areas (0 min). All stability tests were performed at least in triplicates.
Metabolites were identified on an Agilent 1100 LC system (Agilent Technologies, Santa Clara, CA, USA) coupled on-line via a UV-detector (absorbance recorded at 214 nm) to the electrospray ionization source on an ion trap mass spectrometer (ESI-IT-MS, Esquire HCT, Bruker Daltonics GmbH, Bremen, Germany). Samples were separated on an Aqua C18-column (inner diameter: 2 mm, length: 150 mm, particle size: 3 μm, pore size: 12.5 nm, Phenomenex; column temperature: 60°C) at a flow rate of 0.2 mL/min using a linear gradient of aqueous acetonitrile in the presence of formic acid (FA; 0.1%, v/v) as ion pair reagent. […] The ESI-IT-MS was operated in positive ion mode. Ionization was carried out at 365°C (source temperature) using nitrogen as curtain gas (40 psi) and dry gas (9 L/min). Mass spectra were acquired for an m/z range from 400 to 1300 at a scan rate of 8100 m/z-units per second in standard enhanced mode.

fragment found [1]: Api137(1–17), minor, 24 h
not cleaved [3]: ≥94% (one hour)
Molecule: gu-ONNRPVYIPRPRPPHPRL-OH ({Orn(α-tetramethylguanidino)}-NNRPVYIPRPRPPHPRL-OH)
fragment found [2]: Api137(1–17); gu-ONNRPVYIPRPRPPHPR-OH; also recorded: Api137(1–16); gu-ONNRPVYIPRPRPPHP-OH; also recorded: Api137(1–15)
fragment found [4]: Api137(1–17); also recorded: Api137(1–16); also recorded: Api137(1–15); also recorded: Api137(7–18)
fragment found [5]: Api137(1–17); gu-ONNRPVYIPRPRPPHPR-OH; also recorded: Api137(1–16); also recorded: Api137(1–15)
fragment found [6]: Api137(1–17); also recorded: Api137(1–16); also recorded: Api137(1–15)
fragment found [7]: Api137(1–17); gu-ONNRPVYIPRPRPPHPR-OH; also recorded: Api137(1–16); also recorded: Api137(1–15); also recorded: Api137(7–18)

remaining at 1 h [8]: 42 ± 12%
remaining at 1 h, 31.5 μmol/L [9]: 72 ± 4%
remaining at 1 h, 31.5 μmol/L [10]: 53 ± 4%
intact peptide remaining relative to time zero [11]: less than 13%
remaining at 1 h, 31.5 μmol/L [11]: 12 ± 1%
intact peptide remaining relative to time zero [12]: less than 13%
intact peptide remaining relative to time zero [13]: less than 13%
Overall stability [15]: Medium
Sequential stability [15]: Blood = Serum > Plasma
Molecule: H-VDKPPYLPRPRPPRRIYNR-NH2 [Onc18, VDKPPYLPRPRPPRRIYNR-NH2]
serum half-life time ([14]; mouse serum): 0.333 h and 0.417 h
fraction of peptide remaining in serum after 1 h, reported ([14]; serum, 1 h): around a quarter

not cleaved [3]: ≥94% intact peptide (one hour)
fragment found [4]: Api134(7–18), minor
not cleaved [7]: ≥94% intact peptide (one hour)
Molecule: gu-ONNRPVYIPRPRPPHPOL-NH2 ({Orn(α-tetramethylguanidino)}-NNRPVYIPRPRPPHP[Orn]L-NH2)
fragment found [2]: Api134(1–17); also recorded: Api134 (1–16); also recorded: Api134(7–18); YIPRPRPPHPOL-NH2, major; also recorded: Api134 (8–18); IPRPRPPHPOL-NH2, major
fragment found [6]: Api134(1–17), minor; also recorded: Api134(1–15), minor; also recorded: Api134(7–18), minor

Molecule: VDKPPYLPRPRPPROIYNO-NH2 (H-VDKPPYLPRPRPPR[Orn]IYN[Orn]-NH2)
cleaved bond [2]: Arg14-Orn15, major; also recorded: Asn18-Orn19, major; also recorded: Orn15-Ile16
cleaved bond [3]: Arg14-Orn15, major; also recorded: Asn18-Orn19, major; also recorded: Orn15-Ile16
cleaved bond [4]: Arg14-Orn15, major; also recorded: Asn18-Orn19, major; also recorded: Orn15-Ile16
cleaved bond [5]: Arg14-Orn15, major; also recorded: Asn18-Orn19, major
cleaved bond [6]: Arg14-Orn15, major; also recorded: Asn18-Orn19, major
cleaved bond [7]: Arg14-Orn15, major; also recorded: Asn18-Orn19, major

intact peptide remaining relative to time zero [8]: ≥ 94%
intact peptide remaining relative to time zero [9]: ≥ 94%
intact peptide remaining relative to time zero [10]: ≥ 94%
remaining at 1 h, 31.5 μmol/L [11]: 78 ± 2%
intact peptide remaining relative to time zero [12]: ≥ 94%
intact peptide remaining relative to time zero [13]: ≥ 94%
Overall stability [15]: High
Sequential stability [15]: Blood = Plasma = Serum
Molecule: CC[C@H](C)[C@H](NC(=O)[C@H](Cc1ccc(O)cc1)NC(=O)[C@@H](NC(=O)[C@@H]1CCCN1C(=O)[C@H](CCCNC(=N)N)NC(=O)[C@H](CC(N)=O)NC(=O)[C@H](CC(N)=O)NC(=O)[C@H](CCCN)N=C(N(C)C)N(C)C)C(C)C)C(=O)N1CCC[C@H]1C(=O)N[C@@H](CCCNC(=N)N)C(=O)N1CCC[C@H]1C(=O)N[C@@H](CCCNC(=N)N)C(=O)N1CCC[C@H]1C(=O)N1CCC[C@H]1C(=O)N[C@@H](Cc1c[nH]cn1)C(=O)N1CCC[C@H]1C(=O)N[C@@H](CCCN)C(=O)N[C@@H](CC(C)C)C(N)=O [Api134, gu-ONNRPVYIPRPRPPHPOL-NH2] ({Orn(α-tetramethylguanidino)}-NNRPVYIPRPRPPHP[Orn]L-NH2)
half-life time in mouse serum ([14]; in vitro, mouse serum): 4 h

remaining at 1 h [8]: 103 ± 11%
remaining at 1 h, 31.5 μmol/L [9]: 94 ± 8%
remaining at 1 h, 31.5 μmol/L [10]: 80 ± 12%
remaining at 1 h, 31.5 μmol/L [11]: 64 ± 2%
remaining at 1 h, 31.5 μmol/L ([12]; CD-1, mouse, pooled plasma containing lithium heparin, read-out: intact peptide remaining relative to time zero): 62 ± 8%
remaining at 1 h, 31.5 μmol/L ([13]; CD-1, mouse, pooled plasma containing K2EDTA, read-out: intact peptide remaining relative to time zero): 47 ± 3%
Overall stability [15]: Medium
Sequential stability [15]: Blood = Serum > Plasma
Molecule: CC[C@H](C)[C@H](NC(=O)[C@H](CCCN)NC(=O)[C@H](CCCNC(=N)N)NC(=O)[C@@H]1CCCN1C(=O)[C@@H]1CCCN1C(=O)[C@H](CCCNC(=N)N)NC(=O)[C@@H]1CCCN1C(=O)[C@H](CCCNC(=N)N)NC(=O)[C@@H]1CCCN1C(=O)[C@H](CC(C)C)NC(=O)[C@H](Cc1ccc(O)cc1)NC(=O)[C@@H]1CCCN1C(=O)[C@@H]1CCCN1C(=O)[C@H](CCCCN)NC(=O)[C@H](CC(=O)O)NC(=O)[C@@H](N)C(C)C)C(=O)N[C@@H](Cc1ccc(O)cc1)C(=O)N[C@@H](CC(N)=O)C(=O)N[C@@H](CCCN)C(N)=O [Onc72, VDKPPYLPRPRPPROIYNO-NH2] (H-VDKPPYLPRPRPPR[Orn]IYN[Orn]-NH2)
serum half-life time ([14]; mouse serum): 3 h
peptide remaining in serum after one hour, previous study ([14]; serum, 1 h): 80%

not cleaved [2]: less than 2% being degraded after 1 hour
not cleaved [3]: at least 96% remaining after 1 hour
not cleaved [4]: at least 96% remaining after 1 hour
not cleaved [5]: at least 96% remaining after 1 hour
not cleaved [6]: at least 96% remaining after 1 hour
not cleaved [7]: at least 96% remaining after 1 hour
Molecule: VDKPPYLPRPRPPRrIYNr-NH2 (H-VDKPPYLPRPRPPR[dR]IYN[dR]-NH2)

Molecule: gu-ONNRPVYIPRPRPPHPRL-NH2 ({Orn(α-tetramethylguanidino)}-NNRPVYIPRPRPPHPRL-NH2; SMILES CC[C@H](C)[C@H](NC(=O)[C@H](Cc1ccc(O)cc1)NC(=O)[C@@H](NC(=O)[C@@H]1CCCN1C(=O)[C@H](CCCNC(=N)N)NC(=O)[C@H](CC(N)=O)NC(=O)[C@H](CC(N)=O)NC(=O)[C@H](CCCN)N=C(N(C)C)N(C)C)C(C)C)C(=O)N1CCC[C@H]1C(=O)N[C@@H](CCCNC(=N)N)C(=O)N1CCC[C@H]1C(=O)N[C@@H](CCCNC(=N)N)C(=O)N1CCC[C@H]1C(=O)N1CCC[C@H]1C(=O)N[C@@H](Cc1c[nH]cn1)C(=O)N1CCC[C@H]1C(=O)N[C@@H](CCCNC(=N)N)C(=O)N[C@@H](CC(C)C)C(N)=O)
cleaved bond [1]: R17-L18, one hour
cleaved bond [2]: Arg17-Leu18, major
fragment found [2]: Api88(1–16); gu-ONNRPVYIPRPRPPHP-OH
cleaved bond [3]: Arg17-Leu18, major
cleaved bond [4]: Arg17-Leu18, major
cleaved bond [5]: Arg17-Leu18, major
fragment found [5]: Api88(1–16)
cleaved bond [6]: Arg17-Leu18, major
fragment found [6]: Api88(1–16)
cleaved bond [7]: Arg17-Leu18, major
fragment found [7]: Api88(1–16)

cleaved bond [3]: Arg14-Arg15, major
fragment found [3]: Onc18(1–15); VDKPPYLPRPRPPRR-OH
cleaved bond [4]: Arg14-Arg15, major
fragment found [4]: Onc18(2–14); DKPPYLPRPRPPR-OH
cleaved bond [5]: Arg14-Arg15, major
fragment found [5]: Onc18(1–18); VDKPPYLPRPRPPRRIYN-OH
cleaved bond [6]: Arg14-Arg15, major
fragment found [6]: Onc18(1–18); VDKPPYLPRPRPPRRIYN-OH
cleaved bond [7]: Arg14-Arg15, major
fragment found [7]: Onc18(1–18); VDKPPYLPRPRPPRRIYN-OH
Molecule: H-VDKPPYLPRPRPPRRIYNR-NH2
cleaved bond [2]: Arg14-Arg15, major; also recorded: Asn18-Arg19, major

Molecule: VDKPPYLPRPRPPRRIYN-OH [Onc18(1–18)]
Matrix in which the metabolite was identified ([15]; LC-MS, peak area at least 1% of initially incubated peptide, B blood, DS direct serum, AS activated serum, CS commercial serum, EP EDTA plasma, HP heparin plasma, All = all six): B, DS, AS, CS

Molecule: DTEDKGEFLSEGGGVR
fragment found [5]: FPA(2–16); TEDKGEFLSEGGGVR; also recorded: FPA(3–16); EDKGEFLSEGGGVR
fragment found [6]: FPA(2–16); TEDKGEFLSEGGGVR; also recorded: FPA(3–16); EDKGEFLSEGGGVR
fragment found [7]: FPA(2–16); TEDKGEFLSEGGGVR, one hour; also recorded: FPA(3–16); EDKGEFLSEGGGVR, one hour
